Results published in patent US20080269237A1, “CARBAMIC ACID COMPOUNDS COMPRISING A PIPERAZINE LINKAGE AS HDAC INHIBITORS” (TOPOTARGET UK LIMITED, priority 2002, published 2008).

Tests used:
[1] = tested on: JURKAT (human T-cell line); test: Secondary assay: cell proliferation inhibition WST-1, Jurkat; assay type: cell-based; details: Homo sapiens, 48 h, read-out: Cell Proliferation Inhibition WST-1 (IC50 unless otherwise specified) Jurkat
[2] = tested on: HeLa cells; test: Secondary assay: cell proliferation inhibition WST-1, HeLa; assay type: cell-based; details: Homo sapiens, 48 h, read-out: Cell Proliferation Inhibition WST-1 (IC50 unless otherwise specified) HeLa
From the text: (§1) Compounds with HDAC inhibition activity, as determined using the primary assay, were subsequently evaluated using secondary cell-based assays. The following cell lines were used:
(§2) HeLa—Human cervical adenocarcinoma cell line (ATCC ref. No. CCL-2). K11—HPV E7 transformed human keratinocyte line provided by Pidder Jansen-Duerr, Institut für Biomedizinische Altemsforschung, Innsbruck, Austria. NHEK-Ad—Primary human adult keratinocyte line (Cambrex Corp., East Rutherford, N.J., USA).
(§3) Cells were plated in 96-well plates at 3-10×10^3 cells/well in 100 μL of culture medium. The following day, different concentrations of candidate compounds were added and the cells incubated at 37° C. for 48 h. Subsequently, 10 μL/well of WST-1 reagent was added and the cells reincubated for 1 hour. After the incubation time, absorbance was measured.
(§4) WST-1 is a tetrazolium salt which is cleaved to formazan dye by cellular enzymes. An expansion in the number of viable cells results in an increase in the overall activity of mitochondrial dehydrogenases in the sample. This augmentation in the enzyme activity leads to an increase in the amount of formazan dye formed, which directly correlates to the number of metabolically active cells in the culture. The formazan dye produced is quantified by a scanning multiwell spectrophotometer by measuring the absorbance of the dye solution at 450 nm wavelength (reference wavelength 690 nm).
(§5) Percent activity (% activity) in reducing the number of viable cells was calculated for each test compound as:
(§6) % activity={(S^C−B)/(S^o−B)}×100
(§7) IC50 values were calculated using the software package Prism 3.0 (GraphPad Software Inc., San Diego, Calif.), setting top value at 100 and bottom value at 0.

[3] = tested on: NHEK-Ad (primary human adult keratinocyte line); test: Secondary assay: cell proliferation inhibition WST-1, NHEK-Ad; assay type: cell-based; details: Homo sapiens, Keratinocyte, 48 h, read-out: Cell Proliferation Inhibition WST-1 (IC50 unless otherwise specified) NHEK-AD
From the text: as §1, §2, §3
WST-1 is a tetrazolium salt which is cleaved to formazan dye by cellular enzymes. […] The formazan dye produced is quantified by a scanning multiwell spectrophotometer by measuring the absorbance of the dye solution at 450 nm wavelength (reference wavelength 690 nm).
Percent activity (% activity) in reducing the number of viable cells was calculated for each test compound as: […]
as §7

[4] = target: mouse HDAC2 (Mus musculus, UniProt P70288); test: biochemical
Sequence of mouse HDAC2 (P70288 whole entry, the tested form may be a part): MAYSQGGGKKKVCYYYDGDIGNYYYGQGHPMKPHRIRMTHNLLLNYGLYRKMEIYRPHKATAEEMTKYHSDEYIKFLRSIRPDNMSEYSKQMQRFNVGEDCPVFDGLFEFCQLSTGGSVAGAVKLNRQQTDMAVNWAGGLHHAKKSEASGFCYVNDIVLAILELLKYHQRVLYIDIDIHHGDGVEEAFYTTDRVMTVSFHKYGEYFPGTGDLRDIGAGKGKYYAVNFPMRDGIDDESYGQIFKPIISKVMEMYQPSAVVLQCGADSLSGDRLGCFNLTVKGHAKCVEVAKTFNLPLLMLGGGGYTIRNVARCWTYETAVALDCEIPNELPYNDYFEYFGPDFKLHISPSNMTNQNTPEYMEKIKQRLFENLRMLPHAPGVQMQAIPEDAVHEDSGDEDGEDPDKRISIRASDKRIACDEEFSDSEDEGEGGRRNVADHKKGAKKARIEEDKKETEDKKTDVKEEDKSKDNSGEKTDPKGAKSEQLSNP
From the text: Briefly, this assay relies on the release of radioactive acetate from a radioactively labelled histone fragment by the action of HDAC enzyme. Test compounds, which inhibit HDAC, reduce the yield of radioactive acetate. Signal (e.g., scintillation counts) measured in the presence and absence of a test compound provide an indication of that compound's ability to inhibit HDAC activity. Decreased activity indicates increased inhibition by the test compound. […]
After purification of the radiolabelled histone fragment, it was incubated with a source of HDAC (e.g., an extract of HeLa cells (a rich source of HDAC), recombinantly produced HDAC1 or HDAC2) and any released acetate was extracted into an organic phase and quantitatively determined using scintillation counting. By including a test compound with the source of HDAC, that compound's ability to inhibit the HDAC was determined. […]
A source of HDAC (e.g., 2 μL of crude HeLa extract, 5 μL of HDAC1 or HDAC2; in elution buffer, as above) was incubated with 3 μL of radioactively labelled peptide along with appropriate dilutions of candidate compounds (1.5 μL) in a total volume of 150 μL of buffer (20 mM Tris pH 7.4, 10% glycerol). […] Radioactivity was measured using a Tri-Carb 2100TR Liquid Scintillation Analyzer (Packard). […]

[5] = tested on: K11 (HPV E7 transformed human keratinocyte line); test: Secondary assay: cell proliferation inhibition WST-1, K11; assay type: cell-based; details: Homo sapiens, Keratinocyte, 48 h, read-out: Cell Proliferation Inhibition WST-1 (IC50 unless otherwise specified) K11
From the text: as §1, §2, §3, §4, §5, §6, §7

CC(/C=C/C(=O)NO)=C\[C@@H](C)C(=O)c1ccc(N(C)C)cc1 [TSA, Trichostatin A, reference compound]
IC50 [1]: 0.042 µM
IC50 [2]: 0.35 µM
IC50 [3]: 0.2 µM
IC50 [4]: 0.017 µM
IC50 [5]: 0.38 µM
